Test results from ChEMBL document CHEMBL1201862, “PubChem BioAssay data set” (2004).
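1) Cells in 96-well plates. 2) Compound, 48 h, 5 concentrations. 3) Linear interpolation between surrounding doses. 4) Unreached endpoint = highest concentration. The concentration for 50% growth inhibition is given as GI50.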 The source made the active and inactive calls. Cut-off read from the data, not from the text of the source: active = GI50 up to about 1.1 µM and inactive = higher.

Assays:
Experiment in all cases: growth of human tumour cells (NCI), 48 h
[1] = system: 786-0
[2] = system: A498
[3] = system: A549
[4] = system: ACHN
[5] = system: CAKI-1
[6] = system: CCRF-CEM
[7] = system: COLO 205
[8] = system: DLD-1
[9] = system: DMS-114
[10] = system: DMS-273
[11] = system: EKVX
[12] = system: HCC 2998
[13] = system: HCT-15
[14] = system: HL-60
[15] = system: HOP-18
[16] = system: HOP-62
[17] = system: HOP-92
[18] = system: HT-29
[19] = system: IGROV-1
[20] = system: K562
[21] = system: KM-20L2
[22] = system: KM12
[23] = system: LOX IMVI
[24] = system: LXFL 529
[25] = system: M14
[26] = system: M19-MEL
[27] = system: MOLT-4
[28] = system: Malme-3M
[29] = system: NCI-H226
[30] = system: NCI-H23
[31] = system: NCI-H460
[32] = system: NCI-H522
[33] = system: OVCAR-4
[34] = system: OVCAR-5
[35] = system: OVCAR-8
[36] = system: RPMI-8226
[37] = system: RXF 393
[38] = system: SF-268
[39] = system: SF-295
[40] = system: SF-539
[41] = system: SK-MEL-28
[42] = system: SK-MEL-2
[43] = system: SK-MEL-5
[44] = system: SK-OV-3
[45] = system: SN12C
[46] = system: SNB-19
[47] = system: SNB-75
[48] = system: SNB-78
[49] = system: SW-620
[50] = system: TK-10
[51] = system: U-251
[52] = system: UACC-257
[53] = system: UACC-62
[54] = system: UO-31
[55] = system: XF498
[56] = system: HCT-116
[57] = system: OVCAR-3
[58] = system: SR

Measured: GI50

O=C1Nc2cc(F)ccc2C1=O
inactive: [1] > 100 µM | [2] > 100 µM | [3] > 100 µM | [4] > 100 µM | [5] > 100 µM | [6] > 100 µM | [7] 72.3 µM | [8] > 100 µM | [9] 50.8 µM | [10] > 100 µM | [11] > 100 µM | [12] > 100 µM | [14] > 100 µM | [15] > 100 µM | [16] > 100 µM | [17] > 100 µM | [18] > 100 µM | [19] > 100 µM | [20] > 100 µM | [21] > 100 µM | [22] > 100 µM | [23] > 100 µM | [24] > 100 µM | [25] > 100 µM | [26] > 100 µM | [27] > 100 µM | [28] > 100 µM | [29] > 100 µM | [30] > 100 µM | [31] > 100 µM | [32] 60.7 µM | [33] > 100 µM | [34] > 100 µM | [35] > 100 µM | [36] > 100 µM | [37] > 100 µM | [38] > 100 µM | [39] > 100 µM | [40] > 100 µM | [41] > 100 µM | [42] > 100 µM | [43] > 100 µM | [44] > 100 µM | [45] > 100 µM | [46] > 100 µM | [47] > 100 µM | [48] > 100 µM | [49] 73.3 µM | [50] > 100 µM | [51] > 100 µM | [52] > 100 µM | [53] > 100 µM | [54] > 100 µM | [55] > 100 µM
> 100 µM: [13]

COc1ccc([N+]2=NC(c3ccc([N+](=O)[O-])cc3)=NN(c3ccccc3)C2)cc1.[O-][Cl+3]([O-])([O-])[O-]
inactive: [1] > 100 µM | [2] > 100 µM | [3] > 100 µM | [4] 86.5 µM | [6] 21.2 µM | [7] 10 µM | [8] 34.9 µM | [9] 40.6 µM | [10] > 100 µM | [11] 91.2 µM | [12] > 100 µM | [56] 65.5 µM | [14] 22.3 µM | [16] > 100 µM | [18] 62.7 µM | [19] 33.2 µM | [20] 28.1 µM | [21] 58.9 µM | [22] 90.2 µM | [23] 68.5 µM | [24] 47.3 µM | [27] 31.8 µM | [28] > 100 µM | [29] > 100 µM | [30] > 100 µM | [31] 64.6 µM | [32] 3.65 µM | [57] 79.4 µM | [33] > 100 µM | [34] > 100 µM | [35] > 100 µM | [36] 33 µM | [37] 67.9 µM | [38] > 100 µM | [39] 74.8 µM | [41] > 100 µM | [43] 28.4 µM | [45] > 100 µM | [46] > 100 µM | [48] > 100 µM | [58] 44.2 µM | [49] > 100 µM | [50] > 100 µM | [51] 36.1 µM | [52] > 100 µM | [54] 51.5 µM | [55] 53.6 µM
41.9 µM: [13]

O=c1/c(=C/c2cccc([N+](=O)[O-])c2)sc2nc3ccccc3n12
inactive: [1] > 100 µM | [2] > 100 µM | [3] > 10 µM | [4] 84.7 µM | [5] > 10 µM | [6] > 100 µM | [8] > 100 µM | [9] > 100 µM | [10] > 100 µM | [11] 58.7 µM | [12] 50.8 µM | [56] 37.3 µM | [14] > 100 µM | [16] > 100 µM | [17] > 10 µM | [18] > 100 µM | [19] > 10 µM | [20] > 100 µM | [21] > 10 µM | [22] > 100 µM | [23] 6.73 µM | [24] > 100 µM | [25] 55.1 µM | [26] > 100 µM | [28] > 100 µM | [29] > 100 µM | [30] > 100 µM | [31] > 100 µM | [57] > 10 µM | [33] 52.4 µM | [34] > 100 µM | [35] > 100 µM | [37] > 100 µM | [38] 39.2 µM | [39] > 10 µM | [41] 35.6 µM | [42] > 100 µM | [43] > 10 µM | [44] 67.8 µM | [45] > 100 µM | [46] > 10 µM | [47] 32.8 µM | [48] > 100 µM | [49] > 100 µM | [50] > 100 µM | [51] > 10 µM | [52] 4.71 µM | [54] > 100 µM | [55] > 100 µM
active: [53] 0.446 µM
> 100 µM: [13]
